According to publication PMC8963254, “Effects of Lysine N-ζ-Methylation in Ultrashort Tetrabasic Lipopeptides (UTBLPs) on the Potentiation of Rifampicin, Novobiocin, and Niclosamide in Gram-Negative Bacteria” (Antibiotics, 2022):
Where two headings read alike, the source gives them in different places.

Assays:
E. coli 94393 = assay type: cell-based, Escherichia coli; settings: for MICUTBLP: UTBLP alone
Procedure, shortened: (§1)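 Checkerboard synergy assay: antibiotic and OMP combined at varying concentrations with 5 × 10^5 CFU/mL inoculum (final), 37 °C, 18 h; growth read as turbidity at 590 nm. FICI = sum of FICs (MIC in combination / MIC alone); ≤0.5 synergistic, 0.5–4 additive, >4 antagonistic.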

E. coli ATCC 25922 = assay type: cell-based, Escherichia coli; settings: for MICUTBLP: UTBLP alone
Procedure, shortened: as §1

A. baumannii AB027 = assay type: cell-based, Acinetobacter baumannii; settings: for MICUTBLP: UTBLP alone
Procedure, shortened: as §1

A. baumannii 92247 = assay type: cell-based, Acinetobacter baumannii; settings: for MICUTBLP: UTBLP alone
Procedure, shortened: as §1

A. baumannii ATCC 17978 = assay type: cell-based, Acinetobacter baumannii; settings: for MICUTBLP: UTBLP alone
Procedure, shortened: as §1

K. pneumoniae 113250 [1] = assay type: cell-based, Klebsiella pneumoniae; settings: for MICUTBLP: UTBLP alone
Procedure, shortened: as §1

E. cloacae 118564 = experiment: microbe, parasite or virus in culture; assay type: cell-based, Enterobacter cloacae; settings: 118564, 18 h
Procedure, shortened: (§2)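 Turbidity at 590 nm defined growth, from which the MIC was taken. Cultures at a final density of 5 × 10^5 CFU/mL were exposed to a range of compound levels at 37 °C for 18 h in a CLSI-based microdilution format.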

E. faecium ATCC 27270 [2] = assay type: cell-based, Enterococcus faecium; settings: ATCC 27270, 18 h
Procedure: The in vitro antibacterial activity of the UTBLPs was assessed against wild-type and clinically isolated bacterial strains. To obtain the MIC of the compounds, the microbroth dilution susceptibility assay was performed according to the Clinical and Laboratory Standards Institute (CLSI, Wayne, PA, USA) guidelines and as previously described. Briefly, the compounds at varying concentrations were incubated with bacterial inoculum (5 × 10^5 CFU/mL final concentration) at 37 °C for 18 h. Growth in the form of turbidity was confirmed using an EMax Plus microplate reader (Molecular Devices, San Jose, CA, USA) at 590 nm.

K. pneumoniae 113250 [3] = experiment: microbe, parasite or virus in culture; assay type: cell-based, Klebsiella pneumoniae; settings: 113250, 18 h
Procedure, shortened: as §2

S. aureus ATCC 29213 = assay type: cell-based, Staphylococcus aureus
Procedure, shortened: as §1

MRSA ATCC 33592 = assay type: cell-based, Staphylococcus aureus
Procedure, shortened: as §1

E. faecium ATCC 27270 [4] = assay type: cell-based, Enterococcus faecium
Procedure, shortened: as §1

[5] = UTBLP in combination with novobiocin
[6] = UTBLP in combination with rifampicin
[7] = novobiocin in combination with the UTBLP
[8] = rifampicin in combination with the UTBLP
[9] = UTBLP in combination with chloramphenicol
[10] = UTBLP in combination with niclosamide
[11] = chloramphenicol in combination with the UTBLP
[12] = niclosamide in combination with the UTBLP
[13] = UTBLP alone, plate with chloramphenicol

MICUTBLP (E. coli 94393; plate with novobiocin): > 128 µg/mL
MICUTBLP (E. coli 94393; plate with rifampicin): > 128 µg/mL
MICUTBLP [MICcombo] (E. coli 94393; [5]): 16 µg/mL
MICUTBLP [MICcombo] (E. coli 94393; [6]): 16 µg/mL
MICantibiotic [MICcombo] (E. coli 94393; [7]): 1 µg/mL
MICantibiotic [MICcombo] (E. coli 94393; [8]): 0.125 µg/mL
MICUTBLP (E. coli ATCC 25922; plate with chloramphenicol): > 128 µg/mL
MICUTBLP (E. coli ATCC 25922; plate with niclosamide): > 128 µg/mL
MICUTBLP (E. coli ATCC 25922; plate with novobiocin): > 128 µg/mL
MICUTBLP (E. coli ATCC 25922; plate with rifampicin): > 128 µg/mL
MICUTBLP [MICcombo] (E. coli ATCC 25922; [9]): 0.25 µg/mL
MICUTBLP [MICcombo] (E. coli ATCC 25922; [10]): 4 µg/mL
MICUTBLP [MICcombo] (E. coli ATCC 25922; [5]): 8 µg/mL
MICUTBLP [MICcombo] (E. coli ATCC 25922; [6]): 16 µg/mL
MICantibiotic [MICcombo] (E. coli ATCC 25922; [11]): 2 µg/mL
MICantibiotic [MICcombo] (E. coli ATCC 25922; [12]): 2 µg/mL
MICantibiotic [MICcombo] (E. coli ATCC 25922; [7]): 1 µg/mL
MICantibiotic [MICcombo] (E. coli ATCC 25922; [8]): 0.125 µg/mL
MICUTBLP (A. baumannii AB027; plate with novobiocin): > 128 µg/mL
MICUTBLP (A. baumannii AB027; plate with rifampicin): > 128 µg/mL
MICUTBLP [MICcombo] (A. baumannii AB027; [5]): 16 µg/mL
MICUTBLP [MICcombo] (A. baumannii AB027; [6]): 16 µg/mL
MICantibiotic [MICcombo] (A. baumannii AB027; [7]): 0.25 µg/mL
MICantibiotic [MICcombo] (A. baumannii AB027; [8]): 0.063 µg/mL
MICUTBLP (A. baumannii 92247; plate with novobiocin): > 128 µg/mL
MICUTBLP (A. baumannii 92247; plate with rifampicin): > 128 µg/mL
MICUTBLP [MICcombo] (A. baumannii 92247; [5]): 16 µg/mL
MICUTBLP [MICcombo] (A. baumannii 92247; [6]): 16 µg/mL
MICantibiotic [MICcombo] (A. baumannii 92247; [7]): 0.25 µg/mL
MICantibiotic [MICcombo] (A. baumannii 92247; [8]): 0.063 µg/mL
MICUTBLP (A. baumannii ATCC 17978; plate with chloramphenicol): > 128 µg/mL
MICUTBLP (A. baumannii ATCC 17978; plate with niclosamide): > 128 µg/mL
MICUTBLP (A. baumannii ATCC 17978; plate with novobiocin): > 128 µg/mL
MICUTBLP (A. baumannii ATCC 17978; plate with rifampicin): > 128 µg/mL
MICUTBLP [MICcombo] (A. baumannii ATCC 17978; [9]): 0.25 µg/mL
MICUTBLP [MICcombo] (A. baumannii ATCC 17978; [10]): 8 µg/mL
MICUTBLP [MICcombo] (A. baumannii ATCC 17978; [5]): 8 µg/mL
MICUTBLP [MICcombo] (A. baumannii ATCC 17978; [6]): 16 µg/mL
MICantibiotic [MICcombo] (A. baumannii ATCC 17978; [11]): 64 µg/mL
MICantibiotic [MICcombo] (A. baumannii ATCC 17978; [12]): 2 µg/mL
MICantibiotic [MICcombo] (A. baumannii ATCC 17978; [7]): 0.5 µg/mL
MICantibiotic [MICcombo] (A. baumannii ATCC 17978; [8]): 0.031 µg/mL
MICUTBLP (K. pneumoniae 113250 [1]; plate with novobiocin): > 128 µg/mL
MICUTBLP (K. pneumoniae 113250 [1]; plate with rifampicin): > 128 µg/mL
MICUTBLP [MICcombo] (K. pneumoniae 113250 [1]; [5]): 16 µg/mL
MICUTBLP [MICcombo] (K. pneumoniae 113250 [1]; [6]): 16 µg/mL
MICantibiotic [MICcombo] (K. pneumoniae 113250 [1]; [7]): 4 µg/mL
MICantibiotic [MICcombo] (K. pneumoniae 113250 [1]; [8]): 4 µg/mL
MIC (E. cloacae 118564): > 128 µg/mL
MIC (E. faecium ATCC 27270 [2]): >128 µg/mL
MIC (K. pneumoniae 113250 [3]): > 128 µg/mL
MICUTBLP (S. aureus ATCC 29213; [13]): 128 µg/mL
MICUTBLP [MICcombo] (S. aureus ATCC 29213; [9]): 0.25 µg/mL
MICchloramphenicol [MICcombo] (S. aureus ATCC 29213; [11]): 16 µg/mL
MICUTBLP (MRSA ATCC 33592; [13]): > 128 µg/mL
MICUTBLP [MICcombo] (MRSA ATCC 33592; [9]): 0.25 µg/mL
MICchloramphenicol [MICcombo] (MRSA ATCC 33592; [11]): 64 µg/mL
MICUTBLP (E. faecium ATCC 27270 [4]; [13]): > 128 µg/mL
MICUTBLP [MICcombo] (E. faecium ATCC 27270 [4]; [9]): 0.25 µg/mL
MICchloramphenicol [MICcombo] (E. faecium ATCC 27270 [4]; [11]): 8 µg/mL
SMILES: CCCCCCCC(=O)N[C@@H](CCCCNC)C(=O)NCCCN(CCCNC(=O)[C@H](CCCCNC)NC(=O)CCCCCCC)CC(=O)N[C@@H](CCCCNC)C(N)=O [UTBLP 2]
Interpretation (E. coli 94393; UTBLP + novobiocin): Synergy (FICI ≤ 0.5 is synergistic)
Interpretation (E. coli 94393; UTBLP + rifampicin): Synergy (FICI ≤ 0.5 is synergistic)
Interpretation (E. coli ATCC 25922; UTBLP + chloramphenicol): Additive (0.5 < x ≤ 4 is additive)
Interpretation (E. coli ATCC 25922; UTBLP + niclosamide): Synergy (FICI ≤ 0.5 is synergistic)
Interpretation (E. coli ATCC 25922; UTBLP + novobiocin): Synergy (FICI ≤ 0.5 is synergistic)
Interpretation (E. coli ATCC 25922; UTBLP + rifampicin): Synergy (FICI ≤ 0.5 is synergistic)
Interpretation (A. baumannii AB027; UTBLP + novobiocin): Synergy (FICI ≤ 0.5 is synergistic)
Interpretation (A. baumannii AB027; UTBLP + rifampicin): Synergy (FICI ≤ 0.5 is synergistic)
Interpretation (A. baumannii 92247; UTBLP + novobiocin): Synergy (FICI ≤ 0.5 is synergistic)
Interpretation (A. baumannii 92247; UTBLP + rifampicin): Synergy (FICI ≤ 0.5 is synergistic)
Interpretation (A. baumannii ATCC 17978; UTBLP + chloramphenicol): Additive (0.5 < x ≤ 4 is additive)
Interpretation (A. baumannii ATCC 17978; UTBLP + niclosamide): Synergy (FICI ≤ 0.5 is synergistic)
Interpretation (A. baumannii ATCC 17978; UTBLP + novobiocin): Synergy (FICI ≤ 0.5 is synergistic)
Interpretation (A. baumannii ATCC 17978; UTBLP + rifampicin): Synergy (FICI ≤ 0.5 is synergistic)
Interpretation (K. pneumoniae 113250 [1]; UTBLP + novobiocin): Synergy (FICI ≤ 0.5 is synergistic)
Interpretation (K. pneumoniae 113250 [1]; UTBLP + rifampicin): Synergy (FICI ≤ 0.5 is synergistic)
Interpretation (MRSA ATCC 33592; UTBLP + chloramphenicol): Additive (0.5 < x ≤ 4 is additive)
Interpretation (E. faecium ATCC 27270 [4]; UTBLP + chloramphenicol): Additive (0.5 < x ≤ 4 is additive)
